Results published in US10201546B2, “Quinolinyl modulators of RORγt” (Janssen Pharmaceutica NV, priority 2013, dated 2019).
Where a name gives a salt, the structure may show the parent alone. Read-outs that look alike come from different tables or passages of the source.

Assays:
[1] = tested on: IL-17 production by CD4+ T cells under conditions which favor Th17 differentiation; test: Human Th17 assay (IL-17 production by CD4 T cells); type: cell-based
[2] = molecular target: human RORγt LBD fused to the DNA binding domain of the GAL4 protein (Homo sapiens (Human), UniProt P51449); test: RORγt (LBD) reporter assay in HEK293T cells; type: cell-based; parameters: RORγt (LBD) Reporter Assay, % inhibition: dose or concentration left out as unconfirmed; settings: for inhibition at 6 µM: HEK-293T, read-out: RORγt (LBD) Reporter Assay, % inhibition @ 6 μM, @ 6 μM
[3] = molecular target: human RORγt ligand binding domain (RORγt LBD) (Homo sapiens (Human), UniProt P51449); test: RORγt ThermoFluor assay (thermal shift, binding affinity Kd)
[4] = read-out: ThermoFluor ® Assay, Kd
[5] = read-out: ThermoFluor Assay, Kd

Chain of human RORγt ligand binding domain (RORγt LBD) (P51449 other isoform, or with tags, fused parts or gaps): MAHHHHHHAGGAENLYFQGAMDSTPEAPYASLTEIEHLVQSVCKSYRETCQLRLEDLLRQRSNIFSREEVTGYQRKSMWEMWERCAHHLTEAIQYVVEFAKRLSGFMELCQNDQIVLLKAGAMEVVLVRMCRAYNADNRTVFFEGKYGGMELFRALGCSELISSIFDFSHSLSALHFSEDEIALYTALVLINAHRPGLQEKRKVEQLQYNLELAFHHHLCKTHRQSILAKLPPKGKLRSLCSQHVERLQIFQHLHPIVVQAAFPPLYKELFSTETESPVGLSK
Chain of human RORγt LBD fused to the DNA binding domain of the GAL4 protein (P51449 258-518): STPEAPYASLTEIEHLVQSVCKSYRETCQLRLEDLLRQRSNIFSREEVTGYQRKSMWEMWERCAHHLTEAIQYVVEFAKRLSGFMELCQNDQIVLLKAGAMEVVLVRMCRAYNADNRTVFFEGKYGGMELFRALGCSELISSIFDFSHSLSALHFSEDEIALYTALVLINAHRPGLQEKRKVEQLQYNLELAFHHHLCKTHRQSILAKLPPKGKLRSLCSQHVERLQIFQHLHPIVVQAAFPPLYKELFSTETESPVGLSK

| IC50 [2] [nM] | Compound | IC50 ([1]; Homo sapiens) [nM] | also measured |
| --- | --- | --- | --- |
|  | COc1nc2ccc(C(O)(c3ccccc3)C3CCN(C(C)=O)CC3)cc2c(Cl)c1C1CCOCC1 (single isomer, unassigned) [Example 7b, 1-(4-((4-Chloro-2-methoxy-3-(tetrahydro-2H-pyran-4-yl)quinolin-6-yl)(hydroxy)(phenyl)methyl)piperidin-1-yl)ethanone] | 210 |  |
|  | CCOC(=O)c1c(C(F)(F)F)nc2ccc(C(O)(c3cccnc3)c3cccnc3)cc2c1C(F)(F)F [Example 8, Ethyl 6-(hydroxydi(pyridin-3-yl)methyl)-2,4-bis(trifluoromethyl)quinoline-3-carboxylate.TFA] | 200 |  |
|  | CC(C)(C)c1c(/C=C/c2ccccc2)nc2ccc(C(O)(c3cccnc3)c3cccc(Cl)c3)cc2c1Cl (stereo not shown) [Example 27, {3-tert-Butyl-4-chloro-2-[(E)-2-phenylethenyl]quinolin-6-yl}(3-chlorophenyl)pyridin-3-ylmethanol.TFA] | ~3000 |  |
|  | COc1nc2ccc(C(O)(c3ccc(C(F)(F)F)nc3)c3cncn3C)cc2c(Cl)c1OC(C)C (single isomer, unassigned) [Example 95b, [4-Chloro-2-methoxy-3-(1-methylethoxy)quinolin-6-yl](1-methyl-1H-imidazol-5-yl)[6-(trifluoromethyl)pyridin-3-yl]methanol] | 61 |  |
|  | COc1nc2ccc(C(O)(c3ccccc3)C3CCN(C(C)=O)CC3)cc2c(Cl)c1OC(C)C (single isomer, unassigned) [Example 84b, (1-Acetylpiperidin-4-yl)[4-chloro-2-methoxy-3-(1-methylethoxy)quinolin-6-yl]phenylmethanol] | 5.4 |  |
|  | COc1nc2ccc(C(O)(c3ccc(Cl)cc3)c3cncn3C)cc2c(Cl)c1CN1CCC(n2cccn2)CC1 (single isomer, unassigned) [Example 101c, (3-((4-(1H-Pyrazol-1-yl)piperidin-1-yl)methyl)-4-chloro-2-methoxyquinolin-6-yl)(4-chlorophenyl)(1-methyl-1H-imidazol-5-yl)methanol] | 360 |  |
|  | COc1nc2ccc(C(O)(c3ccc(C(F)(F)F)nc3)c3cncn3C)cc2c(Cl)c1OCC1CC1 (single isomer, unassigned) [Example 88c, [4-Chloro-3-(cyclopropylmethoxy)-2-methoxyquinolin-6-yl](1-methyl-1H-imidazol-5-yl)[6-(trifluoromethyl)pyridin-3-yl]methanol] | 310 |  |
|  | COc1nc2ccc(C(O)(c3sc(C)nc3C)c3cnnn3C)cc2c(Cl)c1C (single isomer, unassigned) [Example 13c, (4-Chloro-2-methoxy-3-methylquinolin-6-yl)(2,4-dimethylthiazol-5-yl)(1-methyl-1H-1,2,3-triazol-5-yl)methanol] | 65 |  |
|  | COc1nc2ccc(C(O)(c3cnc(C)n3C)c3cnc(C)n3C)cc2c(Cl)c1CN1CCC(C(F)(F)F)CC1 [Example 111, (4-Chloro-2-methoxy-3-((4-(trifluoromethyl)piperidin-1-yl)methyl)quinolin-6-yl)bis(1,2-dimethyl-1H-imidazol-5-yl)methanol] | 17 |  |
|  | Cn1cncc1C(O)(c1ccc(C(F)(F)F)nc1)c1ccc2nc(N3CCC3)c(OCC(F)(F)F)c(Cl)c2c1 (single isomer, unassigned) [Example 89c, [2-Azetidin-1-yl-4-chloro-3-(2,2,2-trifluoroethoxy)quinolin-6-yl](1-methyl-1H-imidazol-5-yl)[6-(trifluoromethyl)pyridin-3-yl]methanol] | 79 |  |
|  | Cn1cncc1C(O)(c1ccc(Cl)cc1)c1ccc2nc(N3CCC3)c(OCC(F)(F)F)c(Cl)c2c1 (single isomer, unassigned) [Example 90c, [2-Azetidin-1-yl-4-chloro-3-(2,2,2-trifluoroethoxy)quinolin-6-yl](4-chlorophenyl)(1-methyl-1H-imidazol-5-yl)methanol] | 200 |  |
|  | COc1nc2ccc(C(O)(c3cnc(C)n3C)C3CN(C(C)=O)C3)cc2c(Cl)c1CN1CCC(C(F)(F)F)CC1 (single isomer, unassigned) [Example 124b, 1-(3-((4-Chloro-2-methoxy-3-((4-(trifluoromethyl)piperidin-1-yl)methyl)quinolin-6-yl)(1,2-dimethyl-1H-imidazol-5-yl)(hydroxy)methyl)azetidin-1-yl)ethanone] |  | IC50 [1]: > 6000 nM |
|  | Cn1cncc1C(O)(c1ccc(C(F)(F)F)nc1)c1ccc2nc(N3CCC3)c(OCC3CC3)c(Cl)c2c1 (single isomer, unassigned) [Example 87c, [2-Azetidin-1-yl-4-chloro-3-(cyclopropylmethoxy)quinolin-6-yl](1-methyl-1H-imidazol-5-yl)[6-(trifluoromethyl)pyridin-3-yl]methanol] | 120 |  |
| > 6000 | Cc1ccc(C(O)(c2ccc3nc(Cl)c(CC(F)(F)F)c(N4CCC4)c3c2)c2cnnn2C)c(C)n1 (single isomer, unassigned) [Example 238b, [4-(Azetidin-1-yl)-2-chloro-3-(2,2,2-trifluoroethyl)-6-quinolyl]-(2,6-dimethyl-3-pyridyl)-(3-methyltriazol-4-yl)methanol] |  | RORγt (LBD) Reporter Assay, % inhibition [2]: 9%; Kd [3, 4]: 13000 nM |
| > 6000 | COc1nc2ccc(C(O)(c3ccc(C)nc3C)c3cnnn3C)cc2c(Cl)c1OCCN(C)C (single isomer, unassigned) [Example 74b, {4-Chloro-3-[2-(dimethylamino)ethoxy]-2-methoxyquinolin-6-yl}(2,6-dimethylpyridin-3-yl)(1-methyl-1H-1,2,3-triazol-5-yl)methanol] |  | inhibition at 6 µM [2]: -9%; Kd [3, 5]: 4900 nM |
| > 6000 | Cc1ncc(C(O)c2ccc3nc(Cl)c(OC(C)C)c(Cl)c3c2)n1C (stereo not shown) [Example 172, (2,4-dichloro-3-isopropoxyquinolin-6-yl)(1,2-dimethyl-1H-imidazol-5-yl)methanol] |  | RORγt (LBD) Reporter Assay, % inhibition [2]: 12%; Kd [3, 4]: 12000 nM |
| > 6000 | COc1nc2ccc(C(O)(c3cnc(C)n3C)c3cnc(C)n3C)cc2c(Cl)c1OCc1ccccc1 [Example 75, [3-(benzyloxy)-4-chloro-2-methoxyquinolin-6-yl][bis(1,2-dimethyl-1H-imidazol-5-yl)]methanol] |  | inhibition at 6 µM [2]: -1%; Kd [3, 5]: 9 nM |
| > 6000 | Cc1ccc(C(O)(c2ccc3nc(Cl)c(CC(F)(F)F)c(N4CCC4)c3c2)c2cnnn2C)c(C)n1 (stereo not shown) [Example 238a, [4-(Azetidin-1-yl)-2-chloro-3-(2,2,2-trifluoroethyl)-6-quinolyl]-(2,6-dimethyl-3-pyridyl)-(3-methyltriazol-4-yl)methanol] |  | RORγt (LBD) Reporter Assay, % inhibition [2]: −8%; Kd [3, 4]: > 24000 nM |
| > 6000 | COc1nc2ccc(C(O)(c3cncn3C)C3CCN(S(C)(=O)=O)CC3)cc2c(Cl)c1CC1CCOCC1 (single isomer, unassigned) [Example 6b, (4-Chloro-2-methoxy-3-((tetrahydro-2H-pyran-4-yl)methyl)quinolin-6-yl)(1-methyl-1H-imidazol-5-yl)(1-(methylsulfonyl)piperidin-4-yl)methanol] |  | inhibition at 6 µM [2]: 17%; Kd [3, 5]: 240 nM |
| > 6000 | COc1nc2ccc(C(O)(c3cncn3C)C3CCN(S(C)(=O)=O)CC3)cc2c(Cl)c1CC1CCOCC1 (single isomer, unassigned) [Example 6c, (4-Chloro-2-methoxy-3-((tetrahydro-2H-pyran-4-yl)methyl)quinolin-6-yl)(1-methyl-1H-imidazol-5-yl)(1-(methylsulfonyl)piperidin-4-yl)methanol] |  | RORγt (LBD) Reporter Assay, % inhibition @ 6 μM ([2]; @ 6 μM): 26%; Kd [3, 5]: 130 nM |
